Measured values: PubChem BioAssay AID248 (DTP/NCI, 2004)
“And” between values parts separate entries of the source, which are not always exact repeats. Identical values can stand only once. Toxic doses and inconclusive results are not listed. Cut-off read from the data, not from the text of the source: active = T/C of 150% or more; inactive = T/C below 125%.

Tested on: L1210 leukemia ip in BDF1 mice, survival T/C
Assay: NCI In Vivo Anticancer Drug Screen. Data for tumor model L1210 Leukemia (intraperitoneal) in B6D2F1 (BDF1) mice
Settings: endpoint: mean survival time, higher = longer survival
Method in brief: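 Mice bearing the transplanted tumor received compound or vehicle. Survival of the treated group was divided by that of the vehicle-treated control group to give the ratio.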

[1] = dose: 400.0 mg/kg/injection, schedule: Q01DX001 (ip), vehicle: carboxymethylcellulose (CMC)
[2] = dose: 50.0 mg/kg/injection, schedule: Q01DX009 (ip), vehicle: saline with Tween-80
[3] = dose: 100.0 mg/kg/injection, schedule: Q04DX002 (ip), vehicle: saline with Tween-80
[4] = dose: 200.0 mg/kg/injection, schedule: Q04DX002 (ip), vehicle: saline with Tween-80
[5] = dose: 100.0 mg/kg/injection, schedule: Q04DX002 (ip), vehicle: Klucel (hydroxypropylcellulose) (HPC)
[6] = dose: 200.0 mg/kg/injection, schedule: Q04DX002 (ip), vehicle: Klucel (hydroxypropylcellulose) (HPC)
[7] = dose: 100.0 mg/kg/injection, schedule: Q01DX009 (ip), vehicle: Klucel (hydroxypropylcellulose) (HPC)
[8] = dose: 100.0 mg/kg/injection, schedule: Q04DX003 (ip), vehicle: Klucel (hydroxypropylcellulose) (HPC)
[9] = dose: 200.0 mg/kg/injection, schedule: Q01DX009 (ip), vehicle: Klucel (hydroxypropylcellulose) (HPC)
[10] = dose: 200.0 mg/kg/injection, schedule: Q04DX003 (ip), vehicle: Klucel (hydroxypropylcellulose) (HPC)
[11] = dose: 400.0 mg/kg/injection, schedule: Q01DX009 (ip), vehicle: Klucel (hydroxypropylcellulose) (HPC)
[12] = dose: 400.0 mg/kg/injection, schedule: Q04DX003 (ip), vehicle: Klucel (hydroxypropylcellulose) (HPC)

Measured: T/C

COC(=O)c1[nH]ncc1N=NN(C)C
inactive: dose: 176.0 mg/kg/injection, schedule: Q01DX001 (ip), vehicle: carboxymethylcellulose (CMC) 111 % of control | dose: 264.0 mg/kg/injection, schedule: Q01DX001 (ip), vehicle: carboxymethylcellulose (CMC) 120 % of control | [1] 113 % of control

CCOC(=O)c1ccc(NC(=O)CC(C)=O)cc1
inactive: dose: 100.0 mg/kg/injection, schedule: Q04DX003 (ip), vehicle: saline with Tween-80 103 % of control | dose: 200.0 mg/kg/injection, schedule: Q04DX003 (ip), vehicle: saline with Tween-80 101 % of control | dose: 400.0 mg/kg/injection, schedule: Q04DX003 (ip), vehicle: saline with Tween-80 97 % of control

NC(=S)N/N=C/c1cccc(CC(O)(C(F)(F)F)C(F)(F)F)n1
inactive: dose: 12.5 mg/kg/injection, schedule: Q01DX009 (ip), vehicle: saline with Tween-80 97 % of control | dose: 25.0 mg/kg/injection, schedule: Q01DX009 (ip), vehicle: saline with Tween-80 95 % of control | [2] 93 % of control

CCOC(=O)N(OC(C)=O)P(=O)(N1CC1)N1CC1
inactive: dose: 100.0 mg/kg/injection, schedule: Q04DX002 (ip), vehicle: saline 100 % of control | dose: 200.0 mg/kg/injection, schedule: Q04DX002 (ip), vehicle: saline 100 % of control | dose: 400.0 mg/kg/injection, schedule: Q04DX002 (ip), vehicle: saline 104 % of control

CCC1(C)C(=O)c2ccccc2N(C)C1=O (centres undefined)
inactive: [3] 104 % of control | [4] 104 % of control

CN(N(P(N)(Cl)(c1ccccc1)c1ccccc1)P(N)(Cl)(c1ccccc1)c1ccccc1)P(N)(Cl)(c1ccccc1)c1ccccc1
inactive: dose: 100.0 mg/kg/injection, schedule: Q01DX001 (ip), vehicle: steriod suspending solution 113 % of control | dose: 200.0 mg/kg/injection, schedule: Q01DX001 (ip), vehicle: steriod suspending solution 108 % of control

CN=C(N)c1ccc(N=C(N)c2ccc(Cl)c(C(N)=Nc3ccc(C(N)=NC)cc3)c2)cc1
inactive: dose: 10.0 mg/kg/injection, schedule: Q01DX Z (ip), vehicle: water 96 % of control | dose: 20.0 mg/kg/injection, schedule: Q01DX Z (ip), vehicle: water 113 % of control

N#CCN(CC#N)CCCN(CC#N)CC#N
inactive: dose: 25.0 mg/kg/injection, schedule: Q01DX001 (ip), vehicle: saline with Tween-80 96 % of control | dose: 50.0 mg/kg/injection, schedule: Q01DX001 (ip), vehicle: saline with Tween-80 102 % of control | dose: 200.0 mg/kg/injection, schedule: Q01DX001 (ip), vehicle: saline with Tween-80 102 % of control and 90 % of control | dose: 400.0 mg/kg/injection, schedule: Q01DX001 (ip), vehicle: saline with Tween-80 93 % of control

COc1ccc(OC)c(-c2csc(=O)s2)c1
inactive: dose: 50.0 mg/kg/injection, schedule: Q04DX002 (ip), vehicle: Klucel (hydroxypropylcellulose) (HPC) 97 % of control | [5] 111 % of control

NC(=O)COc1ccc2ccccc2c1Cl
inactive: [5] 96 % of control | [6] 89 % of control

CCN(C(=O)COc1ccc(Cl)cc1)c1ccccc1C
inactive: [7] 102 % of control | [8] 101 % of control | [9] 107 % of control | [10] 97 % of control | [11] 116 % of control | [12] 98 % of control

COc1ccc([N+](=O)[O-])cc1NC(=O)Nc1ccc(CCO)cc1
inactive: dose: 50.0 mg/kg/injection, schedule: Q01DX009 (ip), vehicle: Klucel (hydroxypropylcellulose) (HPC) 92 % of control | [7] 105 % of control | [9] 97 % of control

CCNc1nc2c(=O)[nH]c(N)nc2n1C1OC(CO)C(O)C1O (centres undefined)
inactive: dose: 100.0 mg/kg/injection, schedule: Q01DX001 (ip), vehicle: carboxymethylcellulose (CMC) 107 % of control | dose: 200.0 mg/kg/injection, schedule: Q01DX001 (ip), vehicle: carboxymethylcellulose (CMC) 96 % of control | [1] 107 % of control

CCCCNC(=O)c1c(Cl)c(Cl)c(Cl)c(Cl)c1C(=O)O
inactive: [3] 97 % of control | [4] 90 % of control

CCOC(=O)c1ccc(N=NC2C(=O)N(c3ccccc3)N=C2C)cc1 (centres undefined)
inactive: dose: 100.0 mg/kg/injection, schedule: Q01DX001 (ip), vehicle: saline 96 % of control | dose: 200.0 mg/kg/injection, schedule: Q01DX001 (ip), vehicle: saline 96 % of control

O=[N+]([O-])c1cc(Cl)cc2c1-c1c(Cl)cc(Cl)cc1C2O (centres undefined)
inactive: [7] 91 % of control | [8] 104 % of control | [9] 104 % of control | [10] 103 % of control | [12] 97 % of control

CC1(C)C2CC3C(=CCCC3(Cl)C#N)C1C2 (centres undefined)
inactive: [7] 98 % of control | [8] 106 % of control | [9] 102 % of control | [10] 101 % of control | [11] 93 % of control | [12] 97 % of control

Cc1c[n+]([O-])c(C)cc1N=Nc1ccc(N(C)C)cc1
inactive: [2] 111 % of control | dose: 100.0 mg/kg/injection, schedule: Q01DX009 (ip), vehicle: saline with Tween-80 95 % of control | [3] 89 % of control | dose: 200.0 mg/kg/injection, schedule: Q01DX009 (ip), vehicle: saline with Tween-80 90 % of control | [4] 99 % of control

COC(=O)C1C2CC(O)C(C2)C1C(=O)OC (centres undefined)
inactive: dose: 12.5 mg/kg/injection, schedule: Q04DX003 (ip), vehicle: saline with Tween-80 95 % of control | dose: 25.0 mg/kg/injection, schedule: Q04DX003 (ip), vehicle: saline with Tween-80 103 % of control | dose: 50.0 mg/kg/injection, schedule: Q04DX003 (ip), vehicle: saline with Tween-80 94 % of control

Cc1ccc(C)c(N2C(=O)C(=O)N(c3cc(C)ccc3C)P2(=O)N(CCCl)CCCl)c1
inactive: dose: 18.0 mg/kg/injection, schedule: Q01DX Z (ip), vehicle: carboxymethylcellulose (CMC) 101 % of control | dose: 36.0 mg/kg/injection, schedule: Q01DX Z (ip), vehicle: carboxymethylcellulose (CMC) 90 % of control | dose: 72.0 mg/kg/injection, schedule: Q01DX Z (ip), vehicle: carboxymethylcellulose (CMC) 93 % of control | dose: 145.0 mg/kg/injection, schedule: Q01DX Z (ip), vehicle: carboxymethylcellulose (CMC) 96 % of control

COc1ccc(C(=O)c2ccn[nH]2)cc1
inactive: dose: 75.0 mg/kg/injection, schedule: Q04DX003 (ip), vehicle: Klucel (hydroxypropylcellulose) (HPC) 97 % of control | dose: 150.0 mg/kg/injection, schedule: Q04DX003 (ip), vehicle: Klucel (hydroxypropylcellulose) (HPC) 100 % of control | dose: 300.0 mg/kg/injection, schedule: Q04DX003 (ip), vehicle: Klucel (hydroxypropylcellulose) (HPC) 99 % of control

Nc1ccc(S(=O)(=O)F)cc1N
inactive: dose: 100.0 mg/kg/injection, schedule: Q01DX001 (ip), vehicle: acetone 101 % of control | dose: 100.0 mg/kg/injection, schedule: Q01DX009 (ip), vehicle: acetone 96 % of control | dose: 200.0 mg/kg/injection, schedule: Q01DX001 (ip), vehicle: acetone 101 % of control | dose: 200.0 mg/kg/injection, schedule: Q01DX009 (ip), vehicle: acetone 93 % of control | dose: 400.0 mg/kg/injection, schedule: Q01DX001 (ip), vehicle: acetone 103 % of control

Cc1cccc(OC(=O)Nc2cccc(Cl)c2)c1
inactive: dose: 100.0 mg/kg/injection, schedule: Q01DX009 (ip), vehicle: carboxymethylcellulose (CMC) 98 % of control and 110 % of control | [5] 95 % of control | dose: 100.0 mg/kg/injection, schedule: Q04DX002 (ip), vehicle: carboxymethylcellulose (CMC) 93 % of control and 120 % of control and 92 % of control | dose: 100.0 mg/kg/injection, schedule: Q04DX003 (ip), vehicle: carboxymethylcellulose (CMC) 103 % of control | dose: 200.0 mg/kg/injection, schedule: Q01DX009 (ip), vehicle: carboxymethylcellulose (CMC) 96 % of control and 104 % of control | [6] 92 % of control | dose: 200.0 mg/kg/injection, schedule: Q04DX002 (ip), vehicle: carboxymethylcellulose (CMC) 97 % of control and 103 % of control and 106 % of control | dose: 200.0 mg/kg/injection, schedule: Q04DX003 (ip), vehicle: carboxymethylcellulose (CMC) 110 % of control | dose: 400.0 mg/kg/injection, schedule: Q04DX002 (ip), vehicle: Klucel (hydroxypropylcellulose) (HPC) 95 % of control | dose: 400.0 mg/kg/injection, schedule: Q04DX002 (ip), vehicle: carboxymethylcellulose (CMC) 98 % of control and 100 % of control and 124 % of control | dose: 400.0 mg/kg/injection, schedule: Q04DX003 (ip), vehicle: carboxymethylcellulose (CMC) 94 % of control
